Experimental data as given in patent publication US20240059712A1, “BIFUNCTIONAL COMPOUNDS AND PHARMACEUTICAL USES THEREOF” (priority 2022, published 2024).

Biological target: T1, KRAS^G12D protein (Homo sapiens, UniProt P01116, G12D)
T1 construct: host or cells: Aspc-1 (AsPC-1) cells
Test: Protein degradation study (western blot) in Aspc-1 cells
Type: cell-based
Settings: for inhibition at 0.001 µM / inhibition at 0.005 µM / inhibition at 0.05 µM / inhibition at 1 µM / inhibition at 0.1 µM: ASPC1, 24 h, 24 hours; for inhibition at 0.001 µM: Aspc-1 cells treated with 1 nM compound; for inhibition at 0.001 µM / inhibition at 0.005 µM / inhibition at 0.05 µM: read-out: Rate of degradation; for inhibition at 0.005 µM: Aspc-1 cells treated with 0.005 μM compound; for inhibition at 0.05 µM: Aspc-1 cells treated with 50 nM compound; for DC50: Aspc-1 cells, half-maximum degradation concentration, read-out: DC50 of compounds induced Ras G12D protein degradation; for inhibition at 1 µM: Aspc-1 cells treated with 1 μM compound; for inhibition at 1 µM / inhibition at 0.1 µM: read-out: Rate of protein degradation; for inhibition at 0.1 µM: Aspc-1 cells treated with 0.1 μM compound
Experimental: Aspc-1 (Cobioer, CBP60546) cells in exponential growth phase were inoculated on a 6-well cell culture plate (Corning, 3516) at density of 1E6/well; and cells in the plate were cultured in 37° C. incubator containing 5%-carbon dioxide. The next day, testing compounds were dissolved in DMSO (Sigma, RNBF5902) for the preparation of a 10-mM concentration stock solution. The stock solution was diluted with complete medium (RPMI-1640 supplemented with 10% fetal bovine serum, 1% penicillin-streptomycin), yielding working solutions of various concentrations. The plate, after the addition of compounds, was placed in a 5% carbon dioxide incubator, and incubated at 37° C. for 24 hours (final DMSO concentration was 0.1%). The plate was then removed from the incubator, and the cells were washed twice with precooled PBS (Gibco, 14190250), followed by addition of 80-μL RIPA lysis buffer (containing protease inhibitor (Invitrogen™, AM2696)) to each well. The adherent cells were scraped off with a cell scraper, and the cell lysate was transferred to a 1.5-mL centrifuge tube followed with a 30-minute incubation on ice. The lysate was then clarified with centrifugation at 14000 rpm for 10 min at 4° C. The supernatant was transferred into a new 1.5-mL centrifuge tube, and protein concentration was measured with BCA protein detection kit (Thermo Fisher, 23225). G12D protein level was assessed by western blot.
A mixture of cell lysate (40 μL) and loading buffer (10 μL, 5×SDS (Beyotime, P0015L)) was denatured in a water-bath at 95° C. for 10 min. The denatured protein sample, at 30 μL/well, was loaded into corresponding well of 4-20% Bis-Tris gel (Kingsley, M00656). Protein samples were initially electrophoresed at 80 V for 30 minutes, followed by 120 V for 40 minutes, until the bromophenol blue strip ran to an appropriate position. After electrophoresis, iBlot2 (Life Technologies, IB21001) was used to transfer the separated samples onto PVDF film. The PVDF membrane was washed with double-distilled water and then blocked in TBST (Thermo Scientific, 28360) buffer containing 5% non-fat milk, for 2 hours. Blocked membrane was rinsed with tris-buffered saline tween-20 (Thermo Scientific, 28360, TBST) three times, 10 minutes each. Membrane was then incubated with 1:1000 diluted KRAS primary antibody (CST, cat #14429S) overnight at 4° C. Membrane was rinsed in a way described previously followed by 1 hour incubation of secondary antibody at room temperature. After washing the film for three times with TBST, ECL color developing solution was applied, and image was captured with Biorad Chemi Doc gel imager. The band gray value was quantified (Image Lab), and protein degradation level was calculated according to the following formula:
Level of RAS protein expression=(RAS-compound/GAPDH)/(RAS-DMSO/GAPDH)
Level of degradation (%)=(1−Rate of RAS protein expression)×100
Symbols of −, +, ++, +++ indicate that the degradation level of Ras protein induced by testing compounds are […], 11 to 30%, 31 to 60% and greater than 60%, respectively.
Half-maximum degradation concentrations (DC50s) of testing compounds were calculated using GraphPad Prism and their values were shown in Table 6. Symbols of […] represent DC50s equal or less than 10 nM, 11-50 nM, 51-100 nM, and 101-200 nM, respectively.

T1 sequence (P01116 1-188 isoform P01116-2 G12D): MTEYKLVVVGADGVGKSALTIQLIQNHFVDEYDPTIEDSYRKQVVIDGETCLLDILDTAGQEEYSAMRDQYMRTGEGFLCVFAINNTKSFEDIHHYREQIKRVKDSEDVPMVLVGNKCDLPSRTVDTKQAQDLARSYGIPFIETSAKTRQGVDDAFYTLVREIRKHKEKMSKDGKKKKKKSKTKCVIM

`C#Cc1c(F)ccc2cc(O)cc(-c3ncc4c(N5CC6CCC(C5)N6)nc(OCC5(CN6CCC(CN7CCC(c8cccc(N9CC(=O)NC9=O)c8)CC7)CC6)CC5)nc4c3F)c12` [Compound 7a] was tested, and the inhibition at 0.001 µM was 11 to 30%.
For `C#Cc1c(F)ccc2cc(O)cc(-c3ncc4c(N5CC6CCC(C5)N6)nc(OCC5(CN6CCC(CN7CCC(c8cccc(N9CCC(=O)NC9=O)c8C)CC7)CC6)CC5)nc4c3F)c12` [Compound 8a], the inhibition at 0.001 µM was 11 to 30%.
`Cc1ccc2[nH]ncc2c1-c1ncc2c(N3CC4CCC(C3)N4)nc(OCC3(CN4CCC5(CC4)CC(N4CCC(c6ccc7c8c(cccc68)C(=O)N7C6CCC(=O)NC6=O)CC4)C5)CC3)nc2c1F` (stereo not drawn) [Compound 18a] showed an inhibition at 0.005 µM of 11 to 30%.
In the case of `Nc1cc(Cl)c(C(F)(F)F)c(-c2ncc3c(N4CC5CCC(C4)N5)nc(OCC4(CN5CCC6(CC5)CC(N5CCC(c7cccc(N8CCC(=O)NC8=O)c7)CC5)C6)CC4)nc3c2F)c1` [Compound 19a], the inhibition at 0.005 µM is reported as 11 to 30% and the inhibition at 0.05 µM is reported as 11 to 30%.
Compound `C#Cc1c(F)ccc2cccc(-c3ncc4c(N5CC6CCC(C5)N6)nc(OCC5(CN6CCC7(CC6)CC(N6CCC(c8ccc(NC9CCC(=O)NC9=O)cc8F)CC6)C7)CC5)nc4c3F)c12` (stereo not drawn) [Compound 22a] has an inhibition at 0.005 µM of 11 to 30% and an inhibition at 0.05 µM of 31 to 60%.
In the case of `C#Cc1c(F)ccc2cc(O)cc(-c3ncc4c(N5CC6CCC(C5)N6)nc(OCC5(CN6CC7(CC(CN8CCC(c9ccc%10c(C%11CCC(=O)NC%11=O)nn(C)c%10c9)CC8)C7)C6)CC5)nc4c3F)c12` (stereo not drawn) [Compound 25a], the inhibition at 0.005 µM is reported as 31 to 60% and the inhibition at 0.05 µM is reported as 31 to 60%.
`C#Cc1c(F)ccc2cc(O)cc(-c3ncc4c(N5CC6CCC(C5)N6)nc(OCC5(CN6CC7(CC(C(=O)N8CCC(c9ccc%10c(C%11CCC(=O)NC%11=O)nn(C)c%10c9)CC8)C7)C6)CC5)nc4c3F)c12` (stereo not drawn) [Compound 27a] gave an inhibition at 0.005 µM of 11 to 30% and an inhibition at 0.05 µM of 11 to 30%.
Compound `C#Cc1c(F)ccc2cc(O)cc(-c3ncc4c(N5CC6CCC(C5)N6)nc(OCCCN5CCN(C(=O)CN6CCC(c7ccc8c(C9CCC(=O)NC9=O)nn(C)c8c7)CC6)CC5)nc4c3F)c12` (stereo not drawn) [Compound 33] has a DC50 of 11 to 50 nM.
With `C#Cc1c(F)ccc2cc(O)cc(-c3ncc4c(N5CC6CCC(C5)N6)nc(OCC5(CN6CCC(N7CC(N8CCC(c9ccc%10c(C%11CCC(=O)NC%11=O)nn(C)c%10c9)CC8)C7)CC6)CC5)nc4c3F)c12` (stereo not drawn) [Compound 34a] the inhibition at 0.005 µM was 31 to 60% and the inhibition at 0.05 µM was greater than 60%.
`C#Cc1c(F)ccc2cc(O)cc(-c3ncc4c(N5CC6CCC(C5)N6)nc(OCC5(CN6CCC(N7CC(C(=O)N8CCC(c9ccc%10c(C%11CCC(=O)NC%11=O)nn(C)c%10c9)CC8)C7)CC6)CC5)nc4c3F)c12` (stereo not drawn) [Compound 35a] gave an inhibition at 0.005 µM of 31 to 60% and an inhibition at 0.05 µM greater than 60%.
In the case of `C#Cc1c(F)ccc2cc(O)cc(-c3ncc4c(N5CC6CCC(C5)N6)nc(OCC5(CN6CCC7(CC6)CC(N6CCC(c8ccc(NC9%10CC(C9)C(=O)NC%10=O)cc8F)CC6)C7)CC5)nc4c3F)c12` [Compound 36a], the inhibition at 0.005 µM is reported as greater than 60%, the inhibition at 0.05 µM is reported as greater than 60% and the DC50 is reported as less than 10 nM.
`C#Cc1c(F)ccc2cc(O)cc(-c3ncc4c(N5CC6CCC(C5)N6)nc(OCC5(CN6CCC7(CC6)CC(N6CCC(c8ccc(CN9CCC(=O)NC9=O)cc8)CC6)C7)CC5)nc4c3F)c12` [Compound 38a] gave an inhibition at 0.005 µM of 11 to 30%.
For `C#Cc1c(F)ccc2cc(O)cc(-c3ncc4c(N5CC6CCC(C5)N6)nc(OCC5(CN6CCC7(CC6)CC(c6cc8c(cc6F)c(N6CCC(=O)NC6=O)nn8C)C7)CC5)nc4c3F)c12` [Compound 39a], the inhibition at 0.005 µM was greater than 60% and the DC50 was less than 10 nM.
`C#Cc1c(F)ccc2cc(O)cc(-c3ncc4c(N5CC6CCC(C5)N6)nc(OCC5(CN6CCC7(CC6)CC(N6CCC(c8cc9c(cc8F)c(C8CCC(=O)NC8=O)nn9C)CC6)C7)CC5)nc4c3F)c12` (stereo not drawn) [Compound 41a] was tested, and the inhibition at 0.005 µM was greater than 60% and the inhibition at 0.05 µM was greater than 60%.
Work on `C#Cc1c(F)ccc2cc(O)cc(-c3ncc4c(N5CC6CCC(C5)N6)nc(OC5CCN(CCCCCCCCCCC(=O)N[C@H](C(=O)N6C[C@H](O)C[C@H]6C(=O)NCc6ccc(-c7scnc7C)cc6)C(C)(C)C)CC5)nc4c3F)c12` [Compound 43] yielded a DC50 of 51 to 100 nM.
For `C#Cc1c(F)ccc2cc(O)cc(-c3ncc4c(N5CC6CCC(C5)N6)nc(OC5CCN(CCCCCCCCCCC(=O)N[C@H](C(=O)N6C[C@H](O)C[C@H]6C(=O)N[C@@H](C)c6ccc(-c7scnc7C)cc6)C(C)(C)C)CC5)nc4c3F)c12` [Compound 45], the DC50 was 11 to 50 nM.
Compound `C#Cc1c(F)ccc2cc(O)cc(-c3ncc4c(N5CC6CCC(C5)N6)nc(OC5CCN(CCCCCCCCCCC(=O)N[C@H](C(=O)N6C[C@H](O)C[C@H]6C(=O)N[C@@H](C)c6ccc(-c7scnc7C)cc6)C(C)(C)C)C5)nc4c3F)c12` (stereo partly drawn) [Compound 55] has a DC50 of 51 to 100 nM.
`C#Cc1c(F)ccc2cc(O)cc(-c3ncc4c(N5CC6CCC(C5)N6)nc(OCC5CCN(CCCCCCCCCCC(=O)N[C@H](C(=O)N6C[C@H](O)C[C@H]6C(=O)N[C@@H](C)c6ccc(-c7scnc7C)cc6)C(C)(C)C)C5)nc4c3F)c12` (stereo partly drawn) [Compound 56] gave a DC50 of 11 to 50 nM.
`C#Cc1c(F)ccc2cc(O)cc(-c3ncc4c(N5CC6CCC(C5)N6)nc(OCC5CCN(CCCCCCCCCCC(=O)N6CCC(c7ccc8c(C9CCC(=O)NC9=O)nn(C)c8c7)CC6)C5)nc4c3F)c12` (stereo not drawn) [Compound 57] showed a DC50 of less than 10 nM.
For `C#Cc1c(F)ccc2cc(O)cc(-c3ncc4c(N5CC6CCC(C5)N6)nc(OCCCN5CCC(C(=O)N6CCN(C(=O)C[C@H](NC(=O)[C@@H]7C[C@@H](O)CN7C(=O)[C@@H](NC(=O)C7(F)CC7)C(C)(C)C)c7ccc(-c8scnc8C)cc7)CC6)CC5)nc4c3F)c12` [Compound 65], the inhibition at 1 µM was 11 to 30%.
`C#Cc1c(F)ccc2cc(O)cc(-c3ncc4c(N5CC6CCC(C5)N6)nc(OC5CCN(CC(=O)N6CCC(c7ccc8c(C9CCC(=O)NC9=O)nn(C)c8c7)CC6)CC5)nc4c3F)c12` (stereo not drawn) [Compound 69] was tested, and the inhibition at 0.1 µM was greater than 60% and the inhibition at 1 µM was greater than 60%.
For `C#Cc1c(F)ccc2cc(O)cc(-c3ncc4c(N5CC6CCC(C5)N6)nc(OC5CCN(CC6CCN(C(=O)C[C@H](NC(=O)[C@@H]7C[C@@H](O)CN7C(=O)[C@@H](NC(=O)C7(F)CC7)C(C)(C)C)c7ccc(-c8scnc8C)cc7)CC6)CC5)nc4c3F)c12` [Compound 70], the inhibition at 0.1 µM was 11 to 30% and the inhibition at 1 µM was greater than 60%.
In the case of `C#Cc1c(F)ccc2cc(O)cc(-c3ncc4c(N5CC6CCC(C5)N6)nc(OCCCN5CCN(CCC(=O)N6CCC(c7ccc8c(C9CCC(=O)NC9=O)nn(C)c8c7)CC6)CC5)nc4c3F)c12` (stereo not drawn) [Compound 74], the inhibition at 0.1 µM is reported as 31 to 60%.
Work on `C#Cc1c(F)ccc2cc(O)cc(-c3ncc4c(N5CC6CCC(C5)N6)nc(OCC5(CN6CCC(c7ccc8c(C9CCC(=O)NC9=O)nn(C)c8c7)CC6)CC5)nc4c3F)c12` (stereo not drawn) [Compound 99] yielded an inhibition at 0.1 µM greater than 60%.
`C#Cc1c(F)ccc2cc(O)cc(-c3ncc4c(N5CC6CCC(C5)N6)nc(OCC5(CN6CCC(C(=O)N7CCC(c8ccc9c(C%10CCC(=O)NC%10=O)nn(C)c9c8)CC7)CC6)CC5)nc4c3F)c12` (stereo not drawn) [Compound 100] was tested, and the inhibition at 0.1 µM was greater than 60%.
`C#Cc1c(F)ccc2cc(O)cc(-c3ncc4c(N5CC6CCC(C5)N6)nc(OC5CCN(CC(=O)N6CCC7(CC6)CC(N6CCC(c8ccc9c(C%10CCC(=O)NC%10=O)nn(C)c9c8)CC6)C7)C5)nc4c3F)c12` (stereo not drawn) [Compound 101] was tested, and the inhibition at 0.1 µM was 11 to 30%.
For `C#Cc1c(F)ccc2cc(O)cc(-c3ncc4c(N5CC6CCC(C5)N6)nc(N5CC(N6CCN(C(=O)CN7CCC(c8ccc9c(C%10CCC(=O)NC%10=O)nn(C)c9c8)CC7)CC6)C5)nc4c3F)c12` (stereo not drawn) [Compound 120], the inhibition at 0.1 µM was 11 to 30%.
